# Tested on: AGS cells (KRAS^G12D)
# Experiment: Detection of cell proliferation in vitro by MTT/MTS method (cell activity experiment)
# Assay type: cell-based
# Details: AGS cells; MTT/MTS; 3 days of drug treatment; read-out: AGS IC50
# Outline: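 After 3-day compound exposure (final DMSO 0.5%), viability of AGS (KRAS G12D) cells, plated 1000/well one day before dosing, was measured at 490 nm following 4 h MTT or MTS incubation. IC50 was fitted from dose–effect curves relative to DMSO-treated wells.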
row,Compound,IC50 [nM]
1,"CCC1CCc2cc(O)cc(-c3ccc4c(N5C[C@H]6CC[C@@H](C5)N6)nc(OC[C@@]56CCCN5C[C@H](F)C6)nc4c3F)c21 (single isomer, unassigned) [Example 284]",2200
2,"C#Cc1c(F)ccc2cc(O)cc(-c3cc4nc(OC[C@@]56CCCN5C[C@H](F)C6)nc(N5C[C@H]6CC[C@@H](C5)N6)c4c4occc34)c12 [Example 384, 4-(9-((2R,5S)-3,8-diazabicyclo[3.2.1]octan-3-yl)-7-(((2R,7aS)-2-fluorotetrahydro-1H-pyrrolizin-7a(5H)-yl)methoxy)furo[2,3-f]quinazolin-4-yl)-5-ethynyl-6-fluoronaphthalen-2-ol]",212

# Same assay, conditions: Homo sapiens, AGS, 72 h, AGS cells; MTT/MTS; 3 days of drug treatment; read-out: AGS IC50
row,Compound,IC50 [nM]
1,"C#Cc1cccc2cc(O)cc(-c3ccc4c(N5CC6CCCC(C5)N6)nc(OC[C@@]56CCCN5C[C@H](F)C6)nc4c3F)c12 [Example 106, 4-(4-(3,9-diazabicyclo [3.3.1]nonan-3-yl)-8-fluoro-2-(((2R,7aS)-2-fluorotetrahydro-1H-pyrrolizin-7a(5H)-yl)methoxy)quinazolin-7-yl)-5-ethynylnaphthalen-2-ol]",120
2,"CC[C@H]1CCc2cc(O)cc(-c3ncc4c(N5CC6CCC(C5)N6)nc(OC[C@@]56CCCN5C[C@H](F)C6)nc4c3F)c21 (single isomer, unassigned) [Example 222, (S)-7-(4-((1R,5S)-3,8-diazabicyclo[3.2.1]octan-3-yl)-8-fluoro-2-(((2R,7aS)-2-fluorotetrahydro-1H-pyrrolizin-7a(5H)-yl)methoxy)pyrido[4,3-d]pyrimidin-7-yl)-1-ethyl-2,3-dihydro-1H-inden-5-ol or (R)-7-(4-((1R,5S)-3,8-diazabicyclo[3.2.1]octan-3-yl)-8-fluoro-2-(((2R,7aS)-2-fluorotetrahydro-1H-pyrrolizin-7a(5H)-yl)methoxy)pyrido[4,3-d]pyrimidin-7-yl)-1-ethyl-2,3-dihydro-1H-inden-5-ol]",2.5
3,"Oc1cc(-c2c(-c3cn[nH]c3)cc3c(N4C[C@H]5CC[C@@H](C4)N5)nc(OC[C@@]45CCCN4C[C@H](F)C5)nc3c2F)c2ccccc2c1 [Example 377, 4-(4-((1R,5S)-3,8-diazabicyclo[3.2.1]octan-3-yl)-8-fluoro-2-(((2R,7aS)-2-fluorotetrahydro-1H-pyrrolizin-7a(5H)-yl)methoxy)-6-(1H-pyrazol-4-yl)quinazolin-7-yl)naphthalen-2-ol]",120
4,"CCC1CCCc2cc(O)cc(-c3c4c(c5c(N6C[C@H]7CC[C@@H](C6)N7)nc(OC[C@@]67CCCN6C[C@H](F)C7)nc5c3F)CCC4)c21 (stereo partly drawn) [Example 383, 4-(1-((1R,5S)-3,8-diazabicyclo[3.2.1]octan-3-yl)-5-fluoro-3-(((2R,7aS)-2-fluorotetrahydro-1H-pyrrolizin-7a(5H)-yl)methoxy)-8,9-dihydro-7H-cyclopenta[f]quinazolin-6-yl)-5-ethyl-5,6,7,8-tetrahydronaphthalen-2-ol]",50
5,"C#Cc1cccc2cc(O)cc(-c3ccc4c(C5C[C@H]6CC[C@@H](C5)N6)nc(OC[C@@]56CCCN5C[C@H](F)C6)nc4c3F)c12 (stereo partly drawn) [Example 138, 4-(4-((1R,5S)-8-azabicyclo[3.2.1]octan-3-yl)-8-fluoro-2-(((2R, 7aS)-2-fluorotetrahydro-1H-pyrrolizin-7a(5H)-yl)methoxy)quinazolin-7-yl)-5-ethynylnaphthalen-2-ol]",> 2500
6,"C#Cc1cc2c(N3C[C@H]4CC[C@@H](C3)N4)nc(OC[C@@]34CCCN3C[C@H](F)C4)nc2c(F)c1-c1cc(O)cc2c1C(C)CCC2 (stereo partly drawn) [Example 374, 4-(4-((1R,5S)-3,8-diazabicyclo[3.2.1]octan-3-yl)-6-ethynyl-8-fluoro-2-(((2R,7aS)-2-fluorotetrahydro-1H-pyrrolizin-7a(5H)-yl)methoxy)quinazolin-7-yl)-5-methyl-5,6,7,8-tetrahydronaphthalen-2-ol]",32
7,"C#Cc1c(F)ccc2cc(O)cc(-c3ncc4c(N5C[C@H]6CC[C@@H](C5)N6)c(C(F)(F)F)c(OC[C@@]56CCCN5C[C@H](F)C6)nc4c3F)c12 [Example 196, 4-(4-((1R,5S)-3,8-diazabicyclo[3.2.1]octan-3-yl)-8-fluoro-2-(((2R,7aS)-2-fluorotetrahydro-1H-pyrrolizin-7a(5H)-yl)methoxy)-3-(trifluoromethyl)-1,6-naphthyridin-7-yl)-5-ethynyl-6-fluoronaphthalen-2-ol]",> 2500
8,"CC1CCc2cc(O)cc(-c3cc4nc(OC[C@@]56CCCN5C[C@H](F)C6)nc(N5C[C@H]6CC[C@@H](C5)N6)c4c4occc34)c21 (stereo partly drawn) [Example 385, 7-(9-((1R,5S)-3,8-diazabicyclo[3.2.1]octan-3-yl)-7-(((2R,7aS)-2-fluorotetrahydro-1H-pyrrolizin-7a(5H)-yl)methoxy)furo[2,3-f]quinazolin-4-yl)-1-methyl-2,3-dihydro-1H-inden-5-ol]",459
9,"CCc1cccc2cc(O)cc(-c3ncc4c(N5C[C@H]6CC[C@@H](C5)O6)nc(OC[C@@]56CCCN5C[C@H](F)C6)nc4c3F)c12 [Example 14, 4-(4-((1R,5S)-8-oxa-3-azabicyclo[3.2.1]octan-3-yl)-8-fluoro-2-(((2R,7aS)-2-fluorotetrahydro-1H-pyrrolizin-7a(5H)-yl)methoxy)pyrido[4,3-d]pyrimidin-7-yl)-5-ethylnaphthalen-2-ol]",330
10,"C#Cc1c(F)ccc2cc(O)cc(-c3ccc4c(C56CCN(CC5)CC6)nc(OC[C@@]56CCCN5C[C@H](F)C6)nc4c3F)c12 [Example 136, 5-ethynyl-6-fluoro-4-(8-fluoro-2-(((2R,7aS)-2-fluorotetrahydro-1H-pyrrolizin-7a(5H)-yl)methoxy)-4-(quinuclidin-4-yl)quinazolin-7-yl)naphthalen-2-ol]",> 2500
11,"Oc1cc(-c2ncc3c(N4C[C@H]5CC[C@@H](C4)O5)nc(OC[C@@]45CCCN4C[C@H](F)C5)nc3c2F)c2c(F)c(F)ccc2c1 [Example 16, 4-(4-((1R,5S)-8-oxa-3-azabicyclo[3.2.1]octan-3-yl)-8-fluoro-2-(((2R,7aS)-2-fluorotetrahydro-1H-pyrrolizin-7a(5H)-yl)methoxy)pyrido[4,3-d]pyrimidin-7-yl)-5,6-difluoronaphthalen-2-ol]",315
12,"CCc1c(F)ccc2cc(O)cc(-c3c(F)c4nc(OC[C@@]56CCCN5C[C@H](F)C6)nc(N5C[C@H]6CC[C@@H](C5)N6)c4c4cncn34)c12 [Example 416, 4-(1-((1R,5S)-3,8-diazabicyclo[3.2.1]octan-3-yl)-5-fluoro-3-(((2R,7aS)-2-fluorotetrahydro-1H-pyrrolizin-7a(5H)-yl)methoxy)imidazo[1′,5′:1,2]pyrido[4,3-d]pyrimidin-6-yl)-5-ethyl-6-fluoronaphthalen-2-ol]",28
13,"C#Cc1c(F)ccc2cc(O)cc(-c3ncc4c(N5CC6CCC5CN6)nc(OC[C@@]56CCCN5C[C@H](F)C6)nc4c3F)c12 (stereo partly drawn) [Example 46, 4-(4-(2,5-diazabicyclo [2.2.2]octan-2-yl)-8-fluoro-2-(((2R,7aS)-2-fluorotetrahydro-1H-pyrrolizin-7a(5H)-yl)methoxy)pyrido[4,3-d]pyrimidin-7-yl)-5-ethynyl-6-fluoronaphthalen-2-ol]",13
14,"C#Cc1c(F)ccc2cc(O)cc(-c3c(F)c4nc(OC[C@@]56CCCN5C[C@H](F)C6)nc(N5C[C@H]6CC[C@@H](C5)N6)c4c4nccn34)c12 [Example 399, 4-(10-((1R,5S)-3,8-diazabicyclo[3.2.1]octan-3-yl)-6-fluoro-8-(((2R,7aS)-2-fluorotetrahydro-1H-pyrrolizin-7a(5H)-yl)methoxy)imidazo[1′,2′:1,2]pyrido[4,3-d]pyrimidin-5-yl)-5-ethynyl-6-fluoronaphthalen-2-ol]",65
15,"C#Cc1cccc2cc(O)cc(N3CCc4c(nc(OC[C@@]56CCCN5C[C@H](F)C6)nc4N4C[C@H]5CC[C@@H](C4)N5)C3)c12 [Example 206, 4-(4-((1R,5S)-3,8-diazabicyclo[3.2.1]octan-3-yl)-2-(((2R,7aS)-2-fluorotetrahydro-1H-pyrrolizin-7a(5H)-yl)methoxy)-5,8-dihydropyrido[3,4-d]pyrimidin-7(6H)-yl)-5-ethynylnaphthalen-2-ol]",20
16,"Oc1cc(-c2cnc3c(N4C[C@H]5CC[C@@H](C4)N5)nc(OC[C@@]45CCCN4C[C@H](F)C5)nc3c2)c2c(F)c(F)ccc2c1 [Example 199, 4-(4-((1R,5S)-3,8-diazabicyclo[3.2.1]octan-3-yl)-2-(((2R,7aS)-2-fluorotetrahydro-1H-pyrrolizin-7a(5H)-yl)methoxy)pyrido[3,2-d]pyrimidin-7-yl)-5,6-difluoronaphthalen-2-ol]",> 2500
17,"Oc1cc(-c2ncc3c(N4C[C@H]5CC[C@@H](C4)O5)nc(OC[C@@]45CCCN4C[C@H](F)C5)nc3c2F)c2c(F)cccc2c1 [Example 15, 4-(4-((1R,5S)-8-oxa-3-azabicyclo[3.2.1]octan-3-yl)-8-fluoro-2-(((2R,7aS)-2-fluorotetrahydro-1H-pyrrolizin-7a(5H)-yl)methoxy)pyrido[4,3-d]pyrimidin-7-yl)-5-fluoronaphthalen-2-ol]",320
18,"C#Cc1c(F)ccc2cc(O)cc(-c3ncc4c(N5CCC(C#N)CC5)nc(OC[C@@]56CCCN5C[C@H](F)C6)nc4c3F)c12 [Example 68, 1-(7-(8-ethynyl-7-fluoro-3-hydroxynaphthalen-1-yl)-8-fluoro-2-(((2R, 7aS)-2-fluorotetrahydro-1H-pyrrolizin-7a(5H)-yl)methoxy)pyrido[4,3-d]pyrimidin-4-yl)piperidine-4-carbonitrile]",1290
19,"C#Cc1c(F)ccc2cc(O)cc(-c3c(CCC#N)cc4c(N5C[C@H]6CC[C@@H](C5)N6)nc(OC[C@@]56CCCN5C[C@H](F)C6)nc4c3F)c12 [Example 378, 3-(4-((1R,5S)-3,8-diazabicyclo[3.2.1]octan-3-yl)-7-(8-ethynyl-7-fluoro-3-hydroxynaphthalen-1-yl)-8-fluoro-2-(((2R,7aS)-2-fluorotetrahydro-1H-pyrrolizin-7a(5H)-yl)methoxy)quinazolin-6-yl)propanenitrile]",160
